Here are results for 6 molecules from PubChem BioAssay (NCI).

What all share (test): NCI tumour cell line growth inhibition, 48 h
In assay [1] the test system is A549 NSCLC.
Assay [2] has as its system HOP-62 NSCLC.
For assay [3], the system named is M14 melanoma.
For assay [4], the system named is NCI-H522 lung.
The subject of assay [5] is NCI/ADR-RES ovarian.
Assay [6] concerns OVCAR-3 ovarian.
Assay [7] concerns OVCAR-8 ovarian.
For assay [8], the system named is RXF 393 renal.
The test system of assay [9] is SK-MEL-28 melanoma.
In assay [10] the test system is UO-31 renal.

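Cultured in 96-well plates, cells were exposed to test compound for 48 hours across five concentrations. The concentration for 50% growth inhibition is given as GI50. TGI denotes the concentration required for complete inhibition of growth.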

On to `CCCCCCCCCCCCCCCCSS(C)(=O)=O`, for which the TGI was over 80.3 µM in assay [1]; over 100 µM in assay [2]; 25.2 µM in [3]; 11 µM in [4]; 7.05 µM in assay [5]; 31.2 µM in [6]. Besides, the TGI in assay [7] stood at 58.7 µM; in assay [8] it was 10.9 µM; in assay [9], 25.4 µM; in assay [10], 35.7 µM.

Consider `COc1ccc2c(c1)O/C(=C\c1ccc([N+](=O)[O-])o1)C2=O`, for which the GI50 in assay [1] is 2.43 µM; in assay [2] it was 2.05 µM; in [3], 1.64 µM; in assay [4] it was 1.25 µM; in [5], 2.74 µM; in assay [6], 1.19 µM. The GI50 in [7] was 1.41 µM; in assay [8], 1.47 µM; in [9], 2.17 µM; in assay [10], 1.41 µM. Besides, the TGI in assay [1] is 8.04 µM; in [2], 6.56 µM; in [3], 3.74 µM; in assay [4], 2.57 µM; in assay [5] it was over 30.1 µM; in assay [6], 2.53 µM. The TGI in assay [7] was 7.46 µM; in assay [8] it was 2.99 µM; in [9], 5.02 µM; in assay [10], 4.3 µM.

Take `CC[C@]12C=CCN3CC[C@@]4(c5ccc(OC)cc5N(C)[C@H]4[C@@](O)(C(=O)OC)[C@@H]1OC(=O)CCCC[P+](c1ccccc1)(c1ccccc1)c1ccccc1)[C@@H]32`: the GI50 in [1] was 1.86 µM; in assay [2], 2.94 µM; in assay [3] it was 1.45 µM; in assay [4], 0.295 µM; in assay [5], over 100 µM; in assay [6], 0.41 µM. Further, the GI50 in assay [7] was 2.23 µM; in assay [8] it was 0.635 µM; in [9], 0.52 µM; in [10], 12.8 µM. Also, the TGI was 10.2 µM in assay [1]; 13.7 µM in assay [2]; 4.13 µM in assay [3]; 1.77 µM in assay [4]; over 100 µM in [5]; 2.23 µM in assay [6]. Further, the TGI in assay [7] stood at 9.92 µM; in assay [8], 2.72 µM; in assay [9], 1.84 µM; in assay [10], 26.4 µM.

Regarding `COc1ccc(NC(=O)COc2ccccc2)c(C(N)=O)c1`, the GI50 in assay [1] was 1.09 µM; in [2] it was 1.07 µM; in assay [3], 0.499 µM; in assay [4] it was 0.812 µM; in [5] it was 0.574 µM; in assay [6] it was 0.403 µM. The GI50 in assay [7] was 3.01 µM; in assay [8], 1.9 µM; in [9], 6.13 µM; in [10], 6.99 µM. The TGI is over 100 µM in [1]; 43.4 µM in assay [2]; over 100 µM in assay [3]; 13.3 µM in [4]; 11.9 µM in [5]; 2.88 µM in [6]. For the same molecule, the TGI was over 100 µM in [7], 13.5 µM in [8], over 100 µM in assay [9] and over 100 µM in assay [10].

With `O=C(NCCN1CCOCC1)Nc1nc2ccc(Sc3nnc4ccc(-c5ccc(F)cc5)nn34)cc2s1`, the GI50 in assay [1] was over 100 µM; in assay [2] it was over 20.8 µM; in [4], 26.4 µM; in assay [5] it was over 100 µM; in assay [6], over 100 µM; in [7], over 100 µM. The GI50 was 0.522 µM in [8], 2.59 µM in [9] and over 100 µM in assay [10]. Also, the TGI was over 100 µM in assay [1]; over 100 µM in assay [2]; over 38.8 µM in [3]; over 100 µM in [4]; over 100 µM in assay [5]; over 100 µM in assay [6]. Further, the TGI in assay [7] and in assay [10] was over 100 µM each time.

Consider `COc1ccc(/C=C(/C(=O)N2CCN(c3ccc(C)cc3)CC2)c2cc(OC)c(OC)c(OC)c2)cc1N`, for which the GI50 in assay [1] was 0.426 µM; in assay [2], 0.474 µM; in assay [3], 0.247 µM; in assay [4], 0.168 µM; in [5] it was 0.293 µM; in assay [6], 0.239 µM. Besides, the GI50 is 0.417 µM in assay [7], 0.271 µM in [8], 0.54 µM in assay [9] and 0.242 µM in assay [10]. Moreover, the TGI in assay [1] is over 100 µM; in [2], over 100 µM; in [3], 2.48 µM; in assay [4] it was over 100 µM; in [5] it was 21.7 µM; in assay [6] it was 0.921 µM. In addition, the TGI in [7] was over 100 µM; in [8], over 100 µM; in assay [9], over 100 µM; in assay [10], over 35.3 µM.
